Data from US20230099344A1, “COMPOUNDS AND METHODS FOR THE TARGETED DEGRADATION OF IRAK-4” (Arvinas Operations, Inc., priority 2021, published 2023).

The compounds below were run against T1, IRAK-4 (Homo sapiens, UniProt Q9NWZ3) (assay: IRAK-4 ELISA, PBMC degradation). Details: treated overnight.
T1 sequence (Q9NWZ3 1-460): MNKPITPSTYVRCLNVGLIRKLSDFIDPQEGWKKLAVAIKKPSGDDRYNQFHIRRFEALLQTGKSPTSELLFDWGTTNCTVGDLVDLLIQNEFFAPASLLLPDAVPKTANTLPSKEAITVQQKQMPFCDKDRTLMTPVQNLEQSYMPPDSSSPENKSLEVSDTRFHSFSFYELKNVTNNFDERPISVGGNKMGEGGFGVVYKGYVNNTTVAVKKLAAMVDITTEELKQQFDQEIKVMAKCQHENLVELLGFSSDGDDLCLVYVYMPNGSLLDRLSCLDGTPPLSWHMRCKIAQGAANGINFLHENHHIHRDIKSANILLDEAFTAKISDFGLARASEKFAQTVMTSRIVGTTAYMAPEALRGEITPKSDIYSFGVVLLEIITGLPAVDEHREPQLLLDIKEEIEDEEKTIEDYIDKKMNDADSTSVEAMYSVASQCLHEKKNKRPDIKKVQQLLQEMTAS
Type: cell-based
Set-up: endogenous in cells; host or cells: PBMC
How it was run: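 Steps: seed cells (OCI-Ly10 1×10^6/ml; PBMC 2×10^6/ml); add compound the same day; incubate overnight; lyse; quantify IRAK-4 by matched-pair ELISA.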
`CN(C1CCN(c2ccc3c(c2)C(=O)N(C2CCC(=O)NC2=O)C3=O)CC1)[C@H]1CC[C@H](n2cc3cc(NC(=O)c4cnn5cccnc45)c(C4CC4)cc3n2)CC1` (stereo partly drawn) [Example 344] was tested, and the DC50 was under 1 nM, the Dmax was at least 90% and the “PBMC DC90” value was “A (A represents a DC90 value <10.0 nM)”.
`CN(C1CCC(N2Cc3cc(NC(=O)c4cnn5cccnc45)c(OCC4CC4)cc3C2=O)CC1)C1CN(c2ccc3c(c2)C(=O)N(C2CCC(=O)NC2=O)C3=O)C1` (stereo not drawn) [Example 345] was tested, and the DC50 was under 1 nM, the Dmax was at least 90% and the “PBMC DC90” value was “A (A represents a DC90 value <10.0 nM)”.
`CC(C)Oc1cc2nn([C@H]3CC[C@H](N(C)CC4(F)CN(c5ccc6c(c5)C(=O)N(C5CCC(=O)NC5=O)C6=O)C4)CC3)cc2cc1NC(=O)c1cnn2cccnc12` (stereo partly drawn) [Example 347] was tested, and the DC50 was 1 to 5 nM, the Dmax was 80 to 90% and the “PBMC DC90” value was “B (B represents a DC90 value ≥10.0 nM and <25.0 nM)”.
For `CC(C)Oc1cc2nn([C@H]3CC[C@H](NCC4(F)CN(c5ccc6c(c5)C(=O)N(C5CCC(=O)NC5=O)C6=O)C4)CC3)cc2cc1NC(=O)c1cnn2cccnc12` (stereo partly drawn) [Example 348], the DC50 was under 1 nM, the Dmax was at least 90% and the “PBMC DC90” value was “A (A represents a DC90 value <10.0 nM)”.
`CN(CC1CCN(c2ccc3c(c2)C(=O)N(C2CCC(=O)NC2=O)C3=O)CC1)[C@H]1CC[C@H](n2cc3cc(NC(=O)c4cnn5cccnc45)c(OCC4CC4)cc3n2)CC1` (stereo partly drawn) [Example 349] was tested, and the DC50 was under 1 nM, the Dmax was 80 to 90% and the “PBMC DC90” value was “A (A represents a DC90 value <10.0 nM)”.
With `CN(CC1(F)CN(c2ccc3c(c2)C(=O)N(C2CCC(=O)NC2=O)C3=O)C1)[C@H]1CC[C@H](n2cc3cc(NC(=O)c4cnn5cccnc45)c(OCC4CC4)cc3n2)CC1` (stereo partly drawn) [Example 350] the DC50 was 1 to 5 nM, the Dmax was 70 to 80% and the “PBMC DC90” value was “B (B represents a DC90 value ≥10.0 nM and <25.0 nM)”.
`O=C1CCC(N2C(=O)c3ccc(N4CC(F)(CN[C@H]5CC[C@H](n6cc7cc(NC(=O)c8cnn9cccnc89)c(OCC8CC8)cc7n6)CC5)C4)cc3C2=O)C(=O)N1` (stereo partly drawn) [Example 351] was tested, and the DC50 was under 1 nM, the Dmax was 80 to 90% and the “PBMC DC90” value was “A (A represents a DC90 value <10.0 nM)”.
`CN(CC1(F)CCN(c2ccc3c(c2)C(=O)N(C2CCC(=O)NC2=O)C3=O)CC1)[C@H]1CC[C@H](n2cc3cc(NC(=O)c4cnn5cccnc45)c(OCC4CC4)cc3n2)CC1` (stereo partly drawn) [Example 352] was tested, and the DC50 was 1 to 5 nM, the Dmax was 80 to 90% and the “PBMC DC90” value was “B (B represents a DC90 value ≥10.0 nM and <25.0 nM)”.
With `CN(C1CCC(n2cc3cc(NC(=O)c4cnn5cccnc45)c(OCC4CC4)cc3n2)CC1)C1CCN(c2ccc3c(c2)C(=O)N(C2CCC(=O)NC2=O)C3)CC1` (stereo not drawn) [Example 354] the DC50 was under 1 nM, the Dmax was 70 to 80% and the “PBMC DC90” value was “D (D represents a DC90 value ≥50 nM)”.
For `CN(C1CCC(n2cc3cc(NC(=O)c4cnn5cccnc45)c(OCC4CC4)cc3n2)CC1)C1CN(c2ccc3c(c2)C(=O)N(C2CCC(=O)NC2=O)C3)C1` (stereo not drawn) [Example 355], the DC50 was 1 to 5 nM, the Dmax was 80 to 90% and the “PBMC DC90” value was “D (D represents a DC90 value ≥50 nM)”.
With `CN(CC1(C)CCN(c2ccc3c(c2)C(=O)N(C2CCC(=O)NC2=O)C3=O)CC1)C1CCC(n2cc3cc(NC(=O)c4cnn5cccnc45)c(OCC4CC4)cc3n2)CC1` (stereo not drawn) [Example 356] the DC50 was 1 to 5 nM, the Dmax was at least 90% and the “PBMC DC90” value was “A (A represents a DC90 value <10.0 nM)”.
In the case of `CCN(C1CCN(c2ccc3c(c2)C(=O)N([C@@H]2CCC(=O)NC2=O)C3=O)CC1)[C@H]1C[C@H](n2cc3cc(NC(=O)c4cnn5cccnc45)c(OC(C)C)cc3n2)C1` [Example 377, N-(2-((1r,3r)-3-((1-(2-(2,6-dioxopiperidin-3-yl)-1,3-dioxoisoindolin-5-yl)piperidin-4-yl)(ethyl)amino)cyclobutyl)-6-isopropoxy-2H-indazol-5-yl)pyrazolo[1,5-a]pyrimidine-3-carboxamide], the DC50 is reported as 1 to 5 nM, the “PBMC DC90” value is reported as “B (B represents a DC90 value ≥10.0 nM and <25.0 nM)” and the “PBMC Dmax” value is reported as “A (A represents a Dmax value ≥90)”.
